Measured values as given in patent publication US20260092246A1, “PLATFORM FOR ANTIMICROBIAL SUSCEPTIBILITY TESTING AND BACTERIAL IDENTIFICATION” (ASTRADX, INC., priority 2022, published 2026).
Where two headings read alike, the source gives them in different places.

Test system: E. coli
Experiment: Antimicrobial susceptibility testing by dilution-temporal modeling (DTM) of growth in microwell plates with doubling dilutions of antibiotic
Format: cell-based
Conditions: Escherichia coli
Excerpt: “Categorical agreement” is a term of art in AST that describes whether an organism is susceptible or resistant by each of two methods, typically a reference method and an investigative method. The reference method is broth microdilution and comes from the CLSI (M100).
Each experiment involved a standard inoculum of bacteria grown at a concentration similar to what was recovered from the growth-detection step, which began with whole blood. The inoculum was automatically dispensed into the wells of a microwell plate. The wells contained doubling dilutions of standard antibiotics such as cefepime, meropenem, ciprofloxacin, and gentamicin (for gram-negative bacteria). A large number of wells enabled multiple replicates per condition, providing robustness to random dropouts or to growth variation.
In each experiment, the growth and color of each well was monitored for growth by an automated imager. Serial images for each “bug-drug” combination were combined to create a unified picture of bacterial growth for each antibiotic, measure MICs, and determine any correction factors necessary to maximize S/I/R categorical agreement with reference MICs. […]

Structure (SMILES) | MIC (cefepime-resistant strain of E. coli, FIG. 6B, within a single doubling dilution of reference-method MIC, read-out: MIC by the disclosed method (concentration at which growth falls off)) [µg/mL] | MIC (read-out: MIC by the disclosed method (concentration at which fall in growth is visible)) [µg/mL]
CO/N=C(\C(=O)N[C@@H]1C(=O)N2C(C(=O)[O-])=C(C[N+]3(C)CCCC3)CS[C@H]12)c1csc(N)n1 [cefepime] | 16 | –
C[C@@H](O)[C@H]1C(=O)N2C(C(=O)O)=C(S[C@@H]3CN[C@H](C(=O)N(C)C)C3)[C@H](C)[C@H]12 [meropenem] | – | 0.5
